pEC50, pIC50: −log10 of the molar value. Read-outs that look alike come from different tables or passages of the source.
Assays:
[1] = target: Y641N EZH2 (Homo sapiens, UniProt Q15910, Y641N); experiment: Y641N EZH2 assay: as EZH2 assay, with reconstituted H3K27Me2 oligonucleosomes as substrate; assay type: biochemical
[2] = tested on: H3K27me3 mark in HeLa cells; experiment: H3K27me3 Alpha Hela Assay (AlphaLISA); assay type: cell-based; conditions: 72 hrs; for pEC50: Homo sapiens, read-out: H3K27me3_Alpha_HeLa_ (EC50)
Description: H3K27me3 Alpha Hela Assay (AlphaLISA).
Ten different doses of each test compound (in a series of 3-fold dilutions) were plated in duplicate 384-well tissue culture treated plates (Catalog #781080; Greiner Bio One; Monroe, N.C.). Hela cells grown in culture were trypsinized and counted using a Countess® cell counter (Catalog #C10281; Life Technologies, Grand Island, N.Y.). Cell were diluted to 67,000 cells per mL in 10% DMEM (Catalog #10569-010 Life Technologies. Grand Island, N.Y.) and 15 μL (1,000 cells) were plated into each well using the Biotek MicroFlo™ Select Dispenser (BioTek Instruments. Inc. Vermont, USA),) of the 384-well plate. Plates were incubated at 37° C./5% CO2 for 72 hrs. One of the duplicate plates was processed for HeLa assay and the other for viability.
To the plate processed for AlphaLISA was added 5 μL per well Cell-Histone Lysis buffer (1×) (Catalog #AL009F1 Perkin Elmer; Waltham, Mass.) and the plate was incubated at RT for 30 minutes on a plate shaker with low speed (Model#4625-Q Thermo Scientific; Waltham, Mass.). Then, 10 µL per well Histone Extraction buffer (catalog #AL009F2: Perkin Elmer; Waltham, Mass.) was added and the plate further incubated at RT for 20 min on plate shaker with low speed. To each well was then added 10 μL per well of a 5× mix of anti-K27me3 acceptor beads plus Biotinylated anti-Histone H3 (C-ter) Antibody (diluted to 3 nM final) (Catalog #AL118 Perkin Elmer; Waltham, Mass.). Dilution of the acceptor beads and then anti-Histone H3 was with 1× Histone Detection buffer (Catalog #AL009F3 Perkin Elmer; Waltham, Mass.) which was produced diluted from the 10× stock provided. The plate was sealed with an aluminum plate sealer and incubated at 23° C. for 60 min. We then added 10 μL 5× solution of Streptavidin Donor beads (Catalog #6760002 Perkin Elmer; Waltham, Mass.) (20 μg/mL final in 1× Histone Detection Buffer), sealed the plate with Aluminum plate sealer and incubated at 23° C. for 30 min. The plates were then read using an EnVision-Alpha Reader (model #2104 Perkin Elmer: Waltham, Mass.).
Data from both assays was analyzed using Assay Assistant (Constellation Pharmaceuticals In-house product) and Activity Base (IDBS Ltd. Surrey, UK) template. Data files were imported to Assay Assistant and assay conditions were specified. A unique Analysis ID was created and the data files exported to Activity Base. An analysis template was created on Activity Base to measure dose-dependent inhibition of H3K27me3 mark and cell viability respectively. Readout of DMSO wells were used to normalize the data. Resulting curves were fitted using Activity base software Model 205 (IDBS Ltd, Surrey, UK). The data was checked for quality, validated and integrated in excel format using SARview (IDBS Ltd, Surrey, UK).

[3] = target: EZH2 (rPRC2) (Homo sapiens, UniProt Q15910); experiment: EZH2 assay: rPRC2, biotinylated oligonucleosomes, 3H SAM methyl transfer (FlashPlate scintillation); assay type: biochemical; conditions: biotinylated oligonucleosome substrate
Sequence of EZH2 (rPRC2) (Q15910 whole entry): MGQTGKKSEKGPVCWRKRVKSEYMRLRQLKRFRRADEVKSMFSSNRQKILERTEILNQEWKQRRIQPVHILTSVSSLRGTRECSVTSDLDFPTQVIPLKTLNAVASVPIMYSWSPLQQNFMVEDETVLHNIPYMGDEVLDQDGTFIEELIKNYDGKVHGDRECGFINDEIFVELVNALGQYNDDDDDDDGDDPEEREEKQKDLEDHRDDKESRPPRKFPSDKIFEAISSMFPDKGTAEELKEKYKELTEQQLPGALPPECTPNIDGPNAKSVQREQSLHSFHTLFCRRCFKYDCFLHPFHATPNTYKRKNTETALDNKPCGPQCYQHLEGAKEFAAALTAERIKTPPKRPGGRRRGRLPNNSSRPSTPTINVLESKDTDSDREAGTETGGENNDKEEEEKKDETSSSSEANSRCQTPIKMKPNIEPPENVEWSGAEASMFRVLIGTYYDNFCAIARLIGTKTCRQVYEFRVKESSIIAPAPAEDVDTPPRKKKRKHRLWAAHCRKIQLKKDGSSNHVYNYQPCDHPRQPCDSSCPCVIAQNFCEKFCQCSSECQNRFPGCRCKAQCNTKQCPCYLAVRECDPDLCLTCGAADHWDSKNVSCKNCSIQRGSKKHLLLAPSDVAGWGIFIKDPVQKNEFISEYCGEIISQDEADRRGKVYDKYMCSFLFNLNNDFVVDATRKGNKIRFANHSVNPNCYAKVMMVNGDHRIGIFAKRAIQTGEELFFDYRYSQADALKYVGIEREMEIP
Sequence of EZH2 (rPRC2) (O75530 whole entry partner): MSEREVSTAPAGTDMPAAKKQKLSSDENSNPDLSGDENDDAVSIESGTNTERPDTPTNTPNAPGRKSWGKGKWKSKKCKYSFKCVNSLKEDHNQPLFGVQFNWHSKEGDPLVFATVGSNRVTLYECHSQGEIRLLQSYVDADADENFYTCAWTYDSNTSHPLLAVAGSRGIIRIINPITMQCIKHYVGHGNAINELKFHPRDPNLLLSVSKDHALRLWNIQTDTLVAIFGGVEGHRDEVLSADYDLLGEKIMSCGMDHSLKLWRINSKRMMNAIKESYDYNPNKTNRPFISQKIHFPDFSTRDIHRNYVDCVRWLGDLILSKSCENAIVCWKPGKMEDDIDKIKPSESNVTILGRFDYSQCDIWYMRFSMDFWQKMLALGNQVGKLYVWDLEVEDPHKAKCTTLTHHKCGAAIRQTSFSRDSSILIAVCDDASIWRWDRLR
Sequence of EZH2 (rPRC2) (Q15022 whole entry partner): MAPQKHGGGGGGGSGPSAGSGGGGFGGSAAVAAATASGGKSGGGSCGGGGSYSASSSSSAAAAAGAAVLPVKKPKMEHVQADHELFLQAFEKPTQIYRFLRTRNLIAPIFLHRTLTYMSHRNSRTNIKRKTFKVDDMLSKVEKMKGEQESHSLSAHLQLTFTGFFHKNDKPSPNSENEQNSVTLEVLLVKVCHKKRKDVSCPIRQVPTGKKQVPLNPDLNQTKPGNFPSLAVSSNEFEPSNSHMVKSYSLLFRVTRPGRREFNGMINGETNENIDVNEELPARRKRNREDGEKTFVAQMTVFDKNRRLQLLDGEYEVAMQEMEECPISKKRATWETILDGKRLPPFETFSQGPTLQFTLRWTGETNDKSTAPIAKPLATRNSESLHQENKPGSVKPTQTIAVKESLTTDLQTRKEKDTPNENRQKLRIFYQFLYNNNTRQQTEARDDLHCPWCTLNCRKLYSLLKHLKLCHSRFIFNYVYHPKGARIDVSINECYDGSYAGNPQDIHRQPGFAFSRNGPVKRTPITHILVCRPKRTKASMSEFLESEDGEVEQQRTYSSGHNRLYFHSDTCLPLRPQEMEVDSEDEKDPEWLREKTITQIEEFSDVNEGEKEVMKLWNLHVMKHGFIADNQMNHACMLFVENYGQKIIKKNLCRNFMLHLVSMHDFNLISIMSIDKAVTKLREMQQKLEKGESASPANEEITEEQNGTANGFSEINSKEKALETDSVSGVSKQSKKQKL

[4] = Y641N mutant EZH2, H3K27Me2 oligonucleosome substrate, read-out: Y641N EZH2 IC50
[5] = wild-type EZH2 (rPRC2), read-out: EZH2 IC50
[6] = Y641N EZH2 IC50, Y641N mutant EZH2, H3K27Me2 oligonucleosome substrate
[7] = EZH2 IC50, wild-type EZH2 (rPRC2)

Sequence of Y641N EZH2 (Q15910 whole entry Y641N): as the sequence (Q15910 whole entry) above, with Y641N counted along it
Sequence of Y641N EZH2 (O75530 whole entry partner): as the sequence (O75530 whole entry partner) above
Sequence of Y641N EZH2 (Q15022 whole entry partner): as the sequence (Q15022 whole entry partner) above

COc1cc(C)[nH]c(=O)c1CNC(=O)c1c(C)n(C(C)C2CCN(S(C)(=O)=O)CC2)c2ncncc12 (stereo not drawn) [Compound 370]
pIC50 [1, 4]: > 7.00
H3K27me3_Alpha_HeLa_ (EC50) [2]: *(3.33 μM)
pIC50 [3, 5]: > 7.00

Cc1cc(C)c(CNC(=O)c2c(C)n(C(C)C3CCN(C4CN(C)C4)CC3)c3ccccc23)c(=O)[nH]1 (single isomer, unassigned) [Compound 377, (R or S)-N-((4,6-dimethyl-2-oxo-1,2-dihydropyridin-3-yl)methyl)-2-methyl-1(1-(1-(1-methylazetidin-3-yl)piperidin-4-yl)ethyl)-1 H-indole-3-carboxamide]
pIC50 [1, 6]: > 7.00
pEC50 [2]: 5.70 to 6.40
pIC50 [3, 7]: > 7.00

CCOC(=O)CN1CCC(C(C)n2c(C)c(C(=O)NCc3c(OC)cc(C)[nH]c3=O)c3ccccc32)CC1 (single isomer, unassigned) [Compound 363, (R or S)-ethyl 2-(4-(1-(3-(((4-methoxy-6-methyl-2-oxo-1,2-dihydropyridin-3-yl)methyl)carbamoyl)-2-methyl-1 H-indol-1-yl)ethyl)piperidin-1-yl)acetate]
pIC50 [1, 6]: > 7.00
pEC50 [2]: > 6.40
pIC50 [3, 7]: > 7.00

COc1cc(C)[nH]c(=O)c1CNC(=O)c1c(C)n(C(C)C2CCN(c3ncccn3)CC2)c2ccccc12 (single isomer, unassigned) [Compound 361, (R or S)—N-((4-methoxy-6-methyl-2-oxo-1,2-dihydropyridin-3-yl)methyl)-2-methyl-1-(1-1-(pyrimidin-2-yl)piperidin-4-yl)ethyl)-1H-indole-3-carboxamide]
pIC50 [1, 6]: > 7.00
pEC50 [2]: > 6.40
pIC50 [3, 7]: > 7.00

COc1cc(C)[nH]c(=O)c1CNC(=O)c1c(C)n(C(C)C2CCOCC2)c2cc(Cl)ccc12 (single isomer, unassigned) [Compound 314, (R or S)-6-chloro-N-((4-methoxy-6-methyl-2-oxo-1,2-dihydropridin-3-1)methyl)-2-methyl-1-(1-(tetrahydro-2H-pyran-4-yl)ethyl)-1H-indole-3-carboxamide]
pIC50 [1, 6]: > 7.00
pEC50 [2]: > 6.40
pIC50 [3, 7]: > 7.00

Cc1cc(OC(F)F)c(CNC(=O)c2c(C)n(C(C)C3CCOCC3)c3ccccc23)c(=O)[nH]1 (single isomer, unassigned) [Compound 335, (R or S)-N-((4-(difluoromethoxy)-6-methyl-2-oxo-1,2-dihydropyridin-3-yl)methyl)-2-methyl-1-(1-(tetrahydro-2 H-pyran-4-yl)ethyl)-1 H-indole-3-carboxamide]
pIC50 [1, 6]: > 7.00
pEC50 [2]: > 6.40
pIC50 [3, 7]: > 7.00

COCC(C)(C)n1c(C)c(C(=O)NCc2c(OC)cc(C)[nH]c2=O)c2ccccc21 [Compound 338, 1-(1-methoxy-2-methylpropan-2-yl)-N-((4-methoxy-6-methyl-2-oxo-1,2-dihydropyridin-3-yl)methyl)-2-methyl-1H-indole-3-carboxamide]
pIC50 [1, 6]: 6.00 to 7.00
pEC50 [2]: 5.70 to 6.40
pIC50 [3, 7]: > 7.00

COc1cc(C)[nH]c(=O)c1CNC(=O)c1c(C)n(C(C)C2CCN(C(=O)OC(C)(C)C)CC2)c2ncncc12 (stereo not drawn) [Compound 332, tert-butyl 4-(1-(5-(((4-methoxy-6-methyl-2-oxo-1,2-dihydropyridin-3-yl)methyl)carbamoyl)-6-methyl-7H-pyrrolo[2,3-d]pyrimidin-7-yl)ethyl)piperidine-1-carboxylate]
pIC50 [1, 4]: > 7.00
pEC50 [2]: 5.70 to 6.40
pIC50 [3, 5]: > 7.00

Cc1cc(C)c(CNC(=O)c2c(C)n(C(C)C3CCN(CC(C)(C)O)CC3)c3ccccc23)c(=O)[nH]1 (single isomer, unassigned) [Compound 369, (R or S)-N-((4,6-dimethyl-2-oxo-1,2-dihydropyridin-3-yl)methyl)-1-(1-(1-(2-hydroxy-2-methylpropyl)piperidin-4-yl)ethyl)-2-methyl-1H-indole-3-carboxamide]
pIC50 [1, 6]: > 7.00
pEC50 [2]: > 6.40
pIC50 [3, 7]: > 7.00

Reference: US9371331B2, “Modulators of methyl modifying enzymes, compositions and uses thereof” (Constellation Pharmaceuticals, Inc., priority 2012, dated 2016)
